Assay results taken from US20230054194A1, “Methods of Treating Cancer” (ARIAGEN, INC., priority 2018, published 2023).

What was measured:
MC38 = MC38 subcutaneous syngeneic colon cancer mouse model (Study 1), tumor growth inhibition; format: in vivo, mouse (C57BL/6); conditions: for TGI(%) / Tumor size (Mean ± SEM): MC38 model, i.p., ARI compounds 160 mg/kg QD × 17 doses, Anti-PD-1 10 BIW × 5 doses, study end day Day 26
Procedure: (§1) In this example, the in vivo anti-tumor efficacy of ARI-001, ARI-002, ARI-003, and ARI-143 and their combinations with an anti-PD-1 antibody was evaluated using a panel of twelve subcutaneous syngeneic mouse tumor models.
(§2) Eleven subcutaneous syngeneic mouse tumor models were generated by innoculating female BALB/C or C57BL/6 mice with cancer cells at their right lower or right front flank followed by randomization as detailed in Table 4 below.
(§3) A solution of a rat monoclonal anti-mouse PD-1 antibody (isotype IgG2a, κ) at a concentration of 6.61 mg/ml was obtained from BioXcell (InVivoMAb anti-mouse PD-1 (CD279), Clone RMP1-14, Cat #BE0146)) and store at 4° C. The antibody solution was diluted with PBS to obtain a 1 mg/ml dosing solution.
(§4) ARI-001, ARI-002, and ARI-003 powder was stored at −20° C. The powder of each compound was dissolved in DMSO to obtain dosing solutions at 106.7, 80, and 53.33 mg/ml for administration to mice at 160, 120, and 80 mg/kg, respectively. ARI-143 was similarly prepared.
(§5) Twelve studies using the twelve subcutaneous syngeneic mouse tumor models were performed. In each study, 80 mice were enrolled and randomly allocated to eight different study groups, with 10 mice in each study group. The mean tumor size at randomization was approximately 80-120 mm^3 (around 100 mm^3). Randomization was performed based on “Matched distribution” randomization method (StudyDirector™ software, version 3.1.399.19). […] All the drugs and vehicle controls were injected to the mice intraperitoneally.
(§6) After tumor cell inoculation, the animals were checked daily for morbidity and mortality. At the time of routine monitoring, the animals were checked for any effects of tumor growth and treatments on behavior such as mobility, food and water consumption, body weight gain/loss (body weights were measured twice or three times per week after randomization), and any other abnormalities. Mortality and observed clinical signs were recorded for individual animals. Tumor volumes were measured twice or three times weekly after randomization in two dimensions using a caliper, and the volume was expressed in mm^3 using the formula: […]
(§7) where V is tumor volume, L is tumor length (the longest tumor dimension) and W is tumor width (the longest tumor dimension perpendicular to L).
(§8) The study was terminated when the mean tumor volume (MTV) in the vehicle group reached a value of 2,000 mm^3. Tumor growth inhibition (TGI) is an indication of antitumor activity, and expressed as: […]
(§9) where T and C are the MTV (or weight) of the treated and control groups, respectively, on a given day. Statistical analysis of the difference in MTV among the groups was conducted using the data collected on the day when the MTV of the vehicle group reached the humane endpoints, so that TGI could be derived for all or most mice enrolled in the study.
(§10) Statistical analysis of differences in MTV among the groups was conducted by Independent-Samples T Test using the data collected. All data were analyzed with SPSS (Statistical Product and Service Solutions) version 18.0 (IBM, Armonk, N.Y., U.S.). P-values were rounded to three decimal places, with the exception that raw P-values less than 0.001 were stated as P<0.001. All tests were two-sided. P<0.05 was considered to be statistically significant.
FIG. 60 is a graph showing the mean tumor volume on different study days in the study groups as indicated according to Study 1 (MC38). The study end day was Day 26.

Pan02 = Pan02 subcutaneous syngeneic pancreatic cancer mouse model (Study 3), tumor growth inhibition; format: in vivo, mouse (C57BL/6); conditions: for TGI(%) / Tumor size (Mean ± SEM): Pan02 model, i.p., ARI compounds 160 mg/kg QD × 28 doses, Anti-PD-1 10 BIW × 8 doses, study end day Day 32; for anti-tumor potency of anti-PD-1 antibody combined with the compound, compared to the antibody alone: Pan02 syngeneic pancreatic cancer model
Procedure: as §1, §2, §3, §4, §5, §6, §7, §8, §9, §10
FIG. 62 is a graph showing the mean tumor volume on different study days in the study groups as indicated according to Study 3 (Pan02). The study end day was Day 32.

A20 = A20 subcutaneous syngeneic lymphoma mouse model (Study 5), tumor growth inhibition; format: in vivo, mouse (BALB/C); conditions: for TGI(%) / Tumor size (Mean ± SEM): A20 model, i.p., ARI compounds 160 mg/kg QD × 14 doses, Anti-PD-1 10 BIW × 4 doses, study end day Day 26
Procedure: as §1, §2, §3, §4, §5, §6, §7, §8, §9, §10
FIG. 64 is a graph showing the mean tumor volume on different study days in the study groups as indicated according to Study 5 (A20). The study end day was Day 26.

LL/2 = LL/2 subcutaneous syngeneic lung cancer mouse model (Study 6), tumor growth inhibition; format: in vivo, mouse (C57BL/6); conditions: for Tumor size / TGI(%): LL/2 model, study end day Day 32; for Tumor size: Mean ± SEM, in mm³; for anti-tumor potency of anti-PD-1 antibody combined with the compound, compared to the antibody alone or the vehicle: LL/2 syngeneic lung cancer model
Procedure: as §1, §2, §3, §4, §5, §6, §7, §8, §9, §10
FIG. 65 is a graph showing the mean tumor volume on different study days in the study groups as indicated according to Study 6 (LL/2). The study end day was Day 32.

RM-1 = RM-1 subcutaneous syngeneic prostate cancer mouse model (Study 7), tumor growth inhibition; format: in vivo, mouse (C57BL/6); conditions: for Tumor size / TGI(%): RM-1 model, study end day Day 19; for Tumor size: Mean ± SEM, in mm³
Procedure: as §1, §2, §3, §4, §5, §6, §7, §8, §9, §10
FIG. 66 is a graph showing the mean tumor volume on different study days in the study groups as indicated according to Study 7 (RM-1). The study end day was Day 19.

Renca = Renca subcutaneous syngeneic kidney cancer mouse model (Study 8), tumor growth inhibition; format: in vivo, mouse (BALB/C); conditions: for Tumor size / TGI(%): Renca model, study end day Day 28; for Tumor size: Mean ± SEM, in mm³; for anti-tumor potency of anti-PD-1 antibody combined with the compound, compared to the antibody alone: Renca syngeneic kidney cancer model
Procedure: as §1, §2, §3, §4, §5, §6, §7, §8, §9, §10
FIG. 67 is a graph showing the mean tumor volume on different study days in the study groups as indicated according to Study 8 (Renca). The study end day was Day 28.

B16F10 = B16F10 subcutaneous syngeneic melanoma mouse model (Study 10), tumor growth inhibition; format: in vivo, mouse (C57BL/6); conditions: for Tumor size / TGI(%): B16F10 model, study end day Day 19; for Tumor size: Mean ± SEM, in mm³
Procedure: as §1, §2, §3, §4, §5, §6, §7, §8, §9, §10
FIG. 69 is a graph showing the mean tumor volume on different study days in the study groups as indicated according to Study 10 (B16F10). The study end day was Day 19.

H22 = H22 subcutaneous syngeneic liver cancer mouse model (Study 11), tumor growth inhibition; format: in vivo, mouse (BALB/C); conditions: for Tumor size / TGI(%): H22 model, study end day Day 18; for Tumor size: Mean ± SEM, in mm³
Procedure: as §1, §2, §3, §4, §5, §6, §7, §8, §9, §10
FIG. 70 is a graph showing the mean tumor volume on different study days in the study groups as indicated according to Study 11 (H22). The study end day was Day 18.

[1] = MC38 syngeneic colon cancer model
[2] = RM-1 syngeneic prostate cancer model

| Structure (SMILES) | TGI(%) (MC38) | Tumor size (Mean ± SEM) (MC38) [mm^3] | anti-tumor potency of anti-PD-1 antibody combined with the compound, compared to the antibody alone or the vehicle (MC38; [1]) | TGI(%) (Pan02) | Tumor size (Mean ± SEM) (Pan02) [mm^3] | anti-tumor potency of anti-PD-1 antibody combined with the compound, compared to the antibody alone (Pan02) | TGI(%) (A20) | Tumor size (Mean ± SEM) (A20) [mm^3] | Tumor size (LL/2) | TGI(%) (LL/2) | anti-tumor potency of anti-PD-1 antibody combined with the compound, compared to the antibody alone or the vehicle (LL/2) | Tumor size (RM-1) | TGI(%) (RM-1) | anti-tumor potency of anti-PD-1 antibody combined with the compound, compared to the antibody alone (RM-1; [2]) | Tumor size (Renca) | TGI(%) (Renca) | anti-tumor potency of anti-PD-1 antibody combined with the compound, compared to the antibody alone (Renca) | Tumor size (B16F10) | TGI(%) (B16F10) | Tumor size (H22) | further results |
| --- | --- | --- | --- | --- | --- | --- | --- | --- | --- | --- | --- | --- | --- | --- | --- | --- | --- | --- | --- | --- | --- |
| CCC(=O)c1csc(C(=O)c2c[nH]c3ccccc23)n1 [ARI-002] | 45 | 1419.94 ± 141.48 | statistically significant increase | 66 | 308.02 ± 177.67 | statistically significant increase | 45 | 1446.75 ± 149.90 | 837.75 ± 117.58 | 62 | statistically significant increase | 1744.11 ± 144.25 | 41 | statistically significant increase | 1101.99 ± 92.71 | 49 | statistically significant increase | 1994.41 ± 180.33 | 32 | 1261.07 ± 203.55 | anti-tumor potency of the compound combined with anti-PD-1 antibody, compared to being used alone (A20; A20 syngeneic lymphoma tumor model): statistically significant increase; anti-tumor potency of anti-PD-1 antibody combined with the compound, compared to the antibody alone or the vehicle (B16F10; B16F10 syngeneic melanoma model): statistically significant increase; TGI(%) (H22): 44%; anti-tumor potency of the compound combined with anti-PD-1 antibody, compared to being used alone (H22; H22 syngeneic liver cancer model): statistically significant increase |
| COC(=O)c1csc(C(=O)c2c[nH]c3ccccc23)n1 [ARI-001] | 37 | 1624.33 ± 148.56 | statistically significant increase | 60 | 357.19 ± 232.32 | statistically significant increase | 55 | 1190.08 ± 205.09 | 881.1 ± 93.59 | 60 | statistically significant increase | 1732.55 ± 162.92 | 41 | statistically significant increase | 1367.52 ± 118.53 | 36 | statistically significant increase | 2089.97 ± 201.33 | 29 | 1139.95 ± 207.21 | anti-tumor potency of the compound combined with anti-PD-1 antibody, compared to being used alone (MC38; [1]): statistically significant increase; anti-tumor potency of the compound combined with anti-PD-1 antibody, compared to being used alone (RM-1; [2]): statistically significant increase; TGI(%) (H22): 50% |
